pIC50: −log10 of the molar value. Activity calls are given as the source filed them. The calls are words filed in the database; no cut-off is given here.
What was measured:
Huh-7 [1] = assay: Antiproliferative activity against FGFR4 overexpressing human Huh-7 cells assessed as inhibition of cell growth by SRB assay
[2] = Antiproliferative activity against FGF19 amplified human JHH7 cells assessed as inhibition of cell growth by SRB assay
Huh-7 [3] = assay: Antitumor activity against human Huh-7 cells xenografted in female BALB/c nude mouse assessed as reduction in tumor volume at 100 mg/kg, po administered twice daily for 15 days; assay type: functional, organism-based; details: time 15.0 day
[4] = Toxicity in female BALB/c nude mouse xenografted with human Huh-7 cells assessed as effect on body weight at 100 mg/kg, po administered twice daily for 15 days; assay type: organism-based; details: in vivo, 360 h, time 15 day
[5] = target: T1, Fibroblast growth factor receptor 1 (Homo sapiens, UniProt P11362); assay: Inhibition of FGFR1 (unknown origin) by Z'-LYTE kinase assay
Target sequence in this assay (P11362 whole entry): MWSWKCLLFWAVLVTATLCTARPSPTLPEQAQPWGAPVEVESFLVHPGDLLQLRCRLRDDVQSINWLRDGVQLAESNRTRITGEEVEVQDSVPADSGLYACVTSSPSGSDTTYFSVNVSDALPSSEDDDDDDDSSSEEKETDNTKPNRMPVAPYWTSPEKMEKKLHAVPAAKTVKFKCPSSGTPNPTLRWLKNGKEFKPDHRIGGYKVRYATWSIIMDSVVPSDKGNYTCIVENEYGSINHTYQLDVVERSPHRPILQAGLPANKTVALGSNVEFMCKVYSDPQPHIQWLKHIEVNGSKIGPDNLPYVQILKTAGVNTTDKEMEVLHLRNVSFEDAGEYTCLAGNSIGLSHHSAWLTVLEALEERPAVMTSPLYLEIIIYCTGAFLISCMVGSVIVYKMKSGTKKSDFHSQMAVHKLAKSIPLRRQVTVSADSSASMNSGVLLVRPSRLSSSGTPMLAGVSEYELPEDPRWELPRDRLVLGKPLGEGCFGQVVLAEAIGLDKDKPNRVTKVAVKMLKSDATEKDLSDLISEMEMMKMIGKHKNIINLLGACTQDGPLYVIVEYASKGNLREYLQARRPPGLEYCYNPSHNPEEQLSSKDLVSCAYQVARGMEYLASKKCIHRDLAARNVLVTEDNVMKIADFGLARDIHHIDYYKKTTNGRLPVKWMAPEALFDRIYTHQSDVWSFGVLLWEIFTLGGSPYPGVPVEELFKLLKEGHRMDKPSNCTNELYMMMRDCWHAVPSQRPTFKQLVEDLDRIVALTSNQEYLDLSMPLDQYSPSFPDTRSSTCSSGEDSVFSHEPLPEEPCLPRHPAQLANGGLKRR

[6] = target: T2, Fibroblast growth factor receptor 2 (Homo sapiens, UniProt P21802); assay: Inhibition of FGFR2 (unknown origin) by Z'-LYTE kinase assay
Target sequence in this assay (P21802 whole entry): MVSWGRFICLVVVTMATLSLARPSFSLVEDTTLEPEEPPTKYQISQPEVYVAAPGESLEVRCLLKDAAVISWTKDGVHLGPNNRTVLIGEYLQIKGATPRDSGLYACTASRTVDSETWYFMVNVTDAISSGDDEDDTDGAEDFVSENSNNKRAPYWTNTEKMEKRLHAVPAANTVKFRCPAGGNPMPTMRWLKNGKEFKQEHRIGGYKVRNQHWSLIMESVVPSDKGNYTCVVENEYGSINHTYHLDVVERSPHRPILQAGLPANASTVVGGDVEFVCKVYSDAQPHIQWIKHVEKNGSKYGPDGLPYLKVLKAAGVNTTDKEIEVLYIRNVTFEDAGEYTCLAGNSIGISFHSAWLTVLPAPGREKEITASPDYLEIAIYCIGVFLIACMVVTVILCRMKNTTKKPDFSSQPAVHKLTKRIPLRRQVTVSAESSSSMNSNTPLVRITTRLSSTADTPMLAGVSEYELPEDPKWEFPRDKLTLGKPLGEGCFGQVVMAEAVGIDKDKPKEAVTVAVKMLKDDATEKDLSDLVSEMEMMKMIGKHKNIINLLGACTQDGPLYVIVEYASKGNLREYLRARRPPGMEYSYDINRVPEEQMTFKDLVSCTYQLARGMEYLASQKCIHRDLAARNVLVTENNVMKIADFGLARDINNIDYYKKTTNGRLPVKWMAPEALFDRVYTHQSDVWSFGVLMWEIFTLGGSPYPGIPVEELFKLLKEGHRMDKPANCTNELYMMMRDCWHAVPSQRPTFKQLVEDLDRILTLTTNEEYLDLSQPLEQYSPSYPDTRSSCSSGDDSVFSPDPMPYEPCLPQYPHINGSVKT

[7] = target: Fibroblast growth factor receptor 4 (Homo sapiens, UniProt P22455); assay: Inhibition of FGFR4 (unknown origin) by Z'-LYTE kinase assay
Fibroblast growth factor receptor 4, sequence (P22455 whole entry): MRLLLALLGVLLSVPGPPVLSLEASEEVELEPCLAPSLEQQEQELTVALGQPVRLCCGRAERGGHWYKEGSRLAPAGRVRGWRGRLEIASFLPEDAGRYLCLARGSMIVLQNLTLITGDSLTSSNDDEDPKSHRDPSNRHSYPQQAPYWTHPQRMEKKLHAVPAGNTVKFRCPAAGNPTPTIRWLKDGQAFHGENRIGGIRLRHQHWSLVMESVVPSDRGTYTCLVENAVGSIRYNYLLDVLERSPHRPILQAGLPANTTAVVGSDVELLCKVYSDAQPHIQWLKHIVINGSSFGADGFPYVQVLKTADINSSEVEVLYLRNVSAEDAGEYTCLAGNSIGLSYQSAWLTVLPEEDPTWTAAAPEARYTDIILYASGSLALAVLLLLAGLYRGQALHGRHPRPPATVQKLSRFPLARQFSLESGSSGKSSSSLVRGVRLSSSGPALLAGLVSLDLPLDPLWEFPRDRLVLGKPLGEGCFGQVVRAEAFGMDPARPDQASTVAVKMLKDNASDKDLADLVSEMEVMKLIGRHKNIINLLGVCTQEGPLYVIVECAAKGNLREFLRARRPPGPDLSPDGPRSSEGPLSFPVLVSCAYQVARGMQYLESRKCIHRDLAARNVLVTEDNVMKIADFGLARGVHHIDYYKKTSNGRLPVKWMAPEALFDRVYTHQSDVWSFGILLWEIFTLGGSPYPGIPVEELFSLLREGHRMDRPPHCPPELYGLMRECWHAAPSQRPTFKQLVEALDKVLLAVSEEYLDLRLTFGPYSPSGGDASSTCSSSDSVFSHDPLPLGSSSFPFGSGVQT

[8] = Toxicity in female BALB/c nude mouse xenografted with human Huh-7 cells assessed as clinical signs at 100 mg/kg, po administered twice daily for 15 days; assay type: organism-based; details: in vivo, 360 h, time 15 day
[9] = target: Fibroblast growth factor receptor 3 (Homo sapiens, UniProt P22607); assay: Inhibition of FGFR3 (unknown origin) by Z'-LYTE kinase assay
Fibroblast growth factor receptor 3, sequence (P22607 whole entry): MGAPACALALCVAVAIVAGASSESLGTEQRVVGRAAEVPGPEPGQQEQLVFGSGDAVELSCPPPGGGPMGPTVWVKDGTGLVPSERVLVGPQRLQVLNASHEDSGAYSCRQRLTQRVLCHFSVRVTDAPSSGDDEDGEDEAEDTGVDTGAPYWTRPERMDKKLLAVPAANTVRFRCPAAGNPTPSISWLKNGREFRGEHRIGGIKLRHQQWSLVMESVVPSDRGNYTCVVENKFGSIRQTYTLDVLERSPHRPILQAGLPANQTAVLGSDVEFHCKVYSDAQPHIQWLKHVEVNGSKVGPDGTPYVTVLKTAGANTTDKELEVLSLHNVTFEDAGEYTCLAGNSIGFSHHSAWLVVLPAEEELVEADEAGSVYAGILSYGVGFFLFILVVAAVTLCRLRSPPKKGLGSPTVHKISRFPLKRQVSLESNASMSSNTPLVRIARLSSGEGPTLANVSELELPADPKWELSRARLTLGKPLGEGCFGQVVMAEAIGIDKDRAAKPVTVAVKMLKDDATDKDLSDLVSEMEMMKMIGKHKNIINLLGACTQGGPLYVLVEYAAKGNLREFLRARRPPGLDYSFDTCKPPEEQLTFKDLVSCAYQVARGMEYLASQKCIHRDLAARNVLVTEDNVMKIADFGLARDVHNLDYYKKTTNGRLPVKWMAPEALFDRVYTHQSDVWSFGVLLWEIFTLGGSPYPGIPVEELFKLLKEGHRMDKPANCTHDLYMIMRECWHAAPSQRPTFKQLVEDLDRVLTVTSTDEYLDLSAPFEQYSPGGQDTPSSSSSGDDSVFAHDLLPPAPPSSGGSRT

Hep 3B2 [10] = assay: Antiproliferative activity against FGF19 amplified human Hep3B cells assessed as inhibition of cell growth by SRB assay
SNU-387 = assay: Growth inhibition of human SNU-387 cells by SRB assay; assay type: functional
PLC-PRF-5 = assay: Growth inhibition of human PLCPRF5 cells by SRB assay; assay type: functional
[11] = Cmax in ICR mouse at 200 mg/kg, po measured after 48 hrs by LC-MS/MS analysis; assay type: ADME, organism-based; details: in vivo
[12] = Growth inhibition of FGF19 amplified and FGFR4 overexpressing human JHH7 cells by SRB assay; assay type: functional
[13] = Oral bioavailability in ICR mouse at 50 mg/kg measured after 24 hrs by LC-MS/MS analysis; assay type: ADME, organism-based; details: in vivo
Huh-7 [14] = assay: Growth inhibition of FGF19 amplified and FGFR4 overexpressing human Huh-7 cells by SRB assay; assay type: functional
[15] = Tmax in ICR mouse at 200 mg/kg, po measured after 48 hrs by LC-MS/MS analysis; assay type: ADME, organism-based; details: in vivo
[16] = Cmax in ICR mouse at 5 mg/kg, iv by LC-MS/MS analysis; assay type: ADME, organism-based; details: in vivo
[17] = Oral bioavailability in ICR mouse at 200 mg/kg measured after 48 hrs by LC-MS/MS analysis; assay type: ADME, organism-based; details: in vivo
[18] = target: T1, Fibroblast growth factor receptor 1; assay: Inhibition of FGFR1 (unknown origin) at 1 uM relative to control
Target sequence in this assay (P11362 22-822 limits assumed): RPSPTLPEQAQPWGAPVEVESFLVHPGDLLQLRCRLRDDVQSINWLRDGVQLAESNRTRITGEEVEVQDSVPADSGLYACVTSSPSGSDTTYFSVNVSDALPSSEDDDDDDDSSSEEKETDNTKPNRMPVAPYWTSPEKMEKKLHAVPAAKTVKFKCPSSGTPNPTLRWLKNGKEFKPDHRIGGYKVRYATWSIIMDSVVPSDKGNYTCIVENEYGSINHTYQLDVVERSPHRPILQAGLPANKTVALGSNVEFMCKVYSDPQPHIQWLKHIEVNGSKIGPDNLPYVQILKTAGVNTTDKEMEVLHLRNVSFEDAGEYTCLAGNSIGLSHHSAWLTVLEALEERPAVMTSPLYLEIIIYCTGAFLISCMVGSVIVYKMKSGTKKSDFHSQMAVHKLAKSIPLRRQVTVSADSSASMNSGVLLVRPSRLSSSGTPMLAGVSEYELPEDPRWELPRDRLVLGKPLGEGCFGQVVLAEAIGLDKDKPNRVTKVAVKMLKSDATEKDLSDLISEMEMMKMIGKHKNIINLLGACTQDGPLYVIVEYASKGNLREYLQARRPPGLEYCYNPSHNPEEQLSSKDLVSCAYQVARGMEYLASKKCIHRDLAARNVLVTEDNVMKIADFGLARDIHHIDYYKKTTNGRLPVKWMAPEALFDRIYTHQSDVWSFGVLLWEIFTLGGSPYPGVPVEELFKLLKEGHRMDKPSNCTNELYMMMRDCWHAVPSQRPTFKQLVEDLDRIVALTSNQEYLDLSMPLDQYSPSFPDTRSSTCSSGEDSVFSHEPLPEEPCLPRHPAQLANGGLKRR

Hep 3B-Luc [19] = assay: Antitumor activity against human Hep 3B-Luc cells xenografted in female BALB/c nude mouse assessed as reduction in liver tumor volume at 100 mg/kg, po administered once daily for 7 weeks and measured within 35 days by bioluminescence imaging; assay type: functional, organism-based; details: time <= 35.0 day
[20] = target: T2, Fibroblast growth factor receptor 2; assay: Inhibition of FGFR2 (unknown origin) at 1 uM relative to control
Target sequence in this assay (P21802 22-821 limits assumed): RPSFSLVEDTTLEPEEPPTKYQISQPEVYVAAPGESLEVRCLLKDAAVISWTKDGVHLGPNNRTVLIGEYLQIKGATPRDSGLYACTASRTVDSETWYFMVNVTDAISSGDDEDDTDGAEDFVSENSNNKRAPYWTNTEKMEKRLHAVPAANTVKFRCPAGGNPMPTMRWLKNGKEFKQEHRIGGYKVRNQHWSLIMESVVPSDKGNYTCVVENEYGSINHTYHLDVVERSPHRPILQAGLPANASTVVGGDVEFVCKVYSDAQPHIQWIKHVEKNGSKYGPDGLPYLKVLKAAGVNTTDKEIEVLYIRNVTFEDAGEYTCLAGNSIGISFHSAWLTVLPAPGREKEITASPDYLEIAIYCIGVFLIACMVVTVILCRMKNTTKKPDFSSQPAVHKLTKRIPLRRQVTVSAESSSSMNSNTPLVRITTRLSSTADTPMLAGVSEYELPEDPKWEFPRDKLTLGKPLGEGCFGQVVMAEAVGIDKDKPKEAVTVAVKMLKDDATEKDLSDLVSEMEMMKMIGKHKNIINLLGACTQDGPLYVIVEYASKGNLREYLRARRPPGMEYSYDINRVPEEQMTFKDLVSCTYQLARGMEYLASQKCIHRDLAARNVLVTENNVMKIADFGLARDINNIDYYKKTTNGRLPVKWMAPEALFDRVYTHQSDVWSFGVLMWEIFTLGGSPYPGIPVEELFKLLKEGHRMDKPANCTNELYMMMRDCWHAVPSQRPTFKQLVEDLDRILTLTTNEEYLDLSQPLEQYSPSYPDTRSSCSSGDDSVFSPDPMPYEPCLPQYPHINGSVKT

[21] = Tmax in ICR mouse at 100 mg/kg, po measured after 24 hrs by LC-MS/MS analysis; assay type: ADME, organism-based; details: in vivo
Hep 3B-Luc [22] = assay: Antitumor activity against human Hep 3B-Luc cells xenografted in female BALB/c nude mouse assessed as reduction in liver tumor volume at 100 mg/kg, po administered once daily for 7 weeks and measured after 119 days by bioluminescence imaging; assay type: functional, organism-based; details: time 119.0 day
[23] = Antitumor activity against human Hep 3B-Luc cells xenografted in female BALB/c nude mouse assessed as survival at 100 mg/kg, po administered once daily for 7 weeks and measured after 119 days relative to control; assay type: functional; details: 2856 h, time 119 day
[24] = AUC (0 to 24 hrs) in ICR mouse at 50 mg/kg, po measured after 24 hrs by LC-MS/MS analysis; assay type: ADME, organism-based; details: in vivo
[25] = AUC (0 to 24 hrs) in ICR mouse at 100 mg/kg, po measured after 24 hrs by LC-MS/MS analysis; assay type: ADME, organism-based; details: in vivo
Hep 3B2 [26] = assay: Growth inhibition of FGF19 amplified and FGFR4 overexpressing human Hep3B cells by SRB assay; assay type: functional
[27] = AUC (0 to 24 hrs) in ICR mouse at 200 mg/kg, po measured after 48 hrs by LC-MS/MS analysis; assay type: ADME, organism-based; details: in vivo
[28] = Half-life in ICR mouse at 100 mg/kg, po measured after 24 hrs by LC-MS/MS analysis; assay type: ADME, organism-based; details: in vivo
[29] = Half-life in ICR mouse at 5 mg/kg, iv by LC-MS/MS analysis; assay type: ADME, organism-based; details: in vivo
RT-112 = assay: Growth inhibition of FGFR3 overexpressing human RT-112 cells by SRB assay; assay type: functional
[30] = Growth inhibition of human HS27 cells by SRB assay; assay type: toxicity, cell-based
[31] = Cmax in ICR mouse at 50 mg/kg, po measured after 24 hrs by LC-MS/MS analysis; assay type: ADME, organism-based; details: in vivo
[32] = Cmax in ICR mouse at 100 mg/kg, po measured after 24 hrs by LC-MS/MS analysis; assay type: ADME, organism-based; details: in vivo
[33] = Half-life in ICR mouse at 50 mg/kg, po measured after 24 hrs by LC-MS/MS analysis; assay type: ADME, organism-based; details: in vivo
[34] = Oral bioavailability in ICR mouse at 100 mg/kg measured after 24 hrs by LC-MS/MS analysis; assay type: ADME, organism-based; details: in vivo
[35] = Tmax in ICR mouse at 50 mg/kg, po measured after 24 hrs by LC-MS/MS analysis; assay type: ADME, organism-based; details: in vivo
[36] = AUC (0 to 24 hrs) in ICR mouse at 5 mg/kg, iv by LC-MS/MS analysis; assay type: ADME, organism-based; details: in vivo
Hep 3B2 [37] = assay: Antitumor activity against human Hep3B cells xenografted in female BALB/c nude ectopic mouse assessed as reduction in tumor volume at 100 mg/kg, po administered twice daily for 15 days; assay type: functional, organism-based; details: time 15.0 day
HepG2 = assay: Growth inhibition of human HepG2 cells by SRB assay; assay type: functional
[38] = Half-life in ICR mouse at 200 mg/kg, po measured after 48 hrs by LC-MS/MS analysis; assay type: ADME, organism-based; details: in vivo

C=CC(=O)Nc1cccc(C)c1Nc1ncc2cc(-c3c(Cl)c(OC)cc(OC)c3Cl)ccc2n1
pIC50 (Huh-7 [1]): 6.72

C=CC(=O)Nc1cccc(F)c1Nc1cc2cnc(-c3c(Cl)c(OC)cc(OC)c3Cl)cc2cn1
pIC50 (Huh-7 [1]): 6.66

C=CC(=O)Nc1ccccc1Nc1cc2c(-c3ccc[nH]3)nc(-c3c(Cl)c(OC)cc(OC)c3Cl)cc2cn1
pIC50 (Huh-7 [1]): 7.21

C=CC(=O)Nc1ccccc1Nc1cc2c(C3CC3)nc(-c3c(Cl)c(OC)cc(OC)c3Cl)cc2cn1
pIC50 (Huh-7 [1]): 7.17

C=CC(=O)Nc1cccc(F)c1Nc1cc2cnc(-c3c(F)c(OC)cc(OC)c3F)cc2cn1
pIC50 (Huh-7 [1]): 6.85

C=CC(=O)Nc1ccccc1Nc1cc2c(-c3ccco3)nc(-c3c(Cl)c(OC)cc(OC)c3Cl)cc2cn1
pIC50 (Huh-7 [1]): 6.96

C=CC(=O)Nc1cc(N2CCOCC2)ccc1Nc1cc2cnc(-c3c(Cl)c(OC)cc(OC)c3Cl)cc2cn1
pIC50 (Huh-7 [1]): 7.10

C=CC(=O)Nc1cc2c(cc1Nc1cc3cnc(-c4c(Cl)c(OC)cc(OC)c4Cl)cc3cn1)CCC2
pIC50 (Huh-7 [1]): 6.95

C=CC(=O)Nc1cccc(C)c1Nc1cc2cnc(-c3c(Cl)c(OC)cc(OC)c3Cl)cc2cn1
pIC50 (Huh-7 [1]): 6.67

C=CC(=O)Nc1cc(C)ccc1Nc1cc2cnc(-c3c(Cl)c(OC)cc(OC)c3Cl)cc2cn1
pIC50 (Huh-7 [1]): 6.90

C=CC(=O)N[C@H]1CCOC[C@H]1Nc1ncc2cc(-c3c(Cl)c(OC)cc(OC)c3Cl)ccc2n1 [FISOGATINIB]
pIC50 [2]: 6.79 | pIC50 (Huh-7 [1]): 7.09 | Activity (Huh-7 [3]): Active | Activity [4]: Non-Toxic | pIC50 [5]: 5.74 | pIC50 [6]: 5.60 | pIC50 [7]: 7.28 | Activity [8]: Non-Toxic | pIC50 [9]: < 5.00 | pIC50 (Hep 3B2 [10]): 6.91

C=CC(=O)Nc1ccc(C)cc1Nc1cc2cnc(-c3c(Cl)c(OC)cc(OC)c3Cl)cc2cn1
pIC50 (Huh-7 [1]): 7.43

C=CC(=O)Nc1ccccc1Nc1cc2c(-c3cccnc3)nc(-c3c(Cl)c(OC)cc(OC)c3Cl)cc2cn1
pIC50 (Huh-7 [1]): 7.17

C=CC(=O)Nc1ccccc1Nc1cc2cnc(-c3c(Cl)c(OC)cc(OC)c3Cl)cc2cn1
pIC50 (Huh-7 [1]): 7.64 | pIC50 [5]: 6.30 | pIC50 [6]: 6.55 | pIC50 [9]: 5.33

C=CC(=O)Nc1ccccc1Nc1cc2c(CC)nc(-c3c(Cl)c(OC)cc(OC)c3Cl)cc2cn1
pIC50 (Huh-7 [1]): 7.44

C=CC(=O)Nc1ccccc1Nc1cc2c(C)nc(-c3c(Cl)c(OC)cc(OC)c3Cl)cc2cn1
GI50 (SNU-387): 0.251 µM | GI50 (PLC-PRF-5): 0.598 µM | Cmax [11]: 40700 ng/mL | GI50 [12]: 0.016 µM | bioavailability [13]: 56.8% | GI50 (Huh-7 [14]): 0.016 µM | Tmax [15]: 1 h | Cmax [16]: 8140 ng/mL | bioavailability [17]: 53.2% | inhibition [18]: > 85% | pIC50 [2]: 7.48 | pIC50 (Huh-7 [1]): 7.72 | Activity (Hep 3B-Luc [19]): Active | inhibition [20]: > 85% | Tmax [21]: 0.5 h | Activity (Hep 3B-Luc [22]): Active | Activity (Huh-7 [3]): Active | survival at 100 mg/kg [23]: > 90% | Activity [4]: Non-Toxic | pIC50 [5]: 5.90 | AUC(0-t) at 24 h [24]: 27300 ng·h/mL | AUC(0-t) at 24 h [25]: 59500 ng·h/mL | GI50 (Hep 3B2 [26]): 0.016 µM | pIC50 [6]: 5.49 | AUC(0-t) at 48 h [27]: 102000 ng·h/mL | half-life [28]: 3.9 h | half-life [29]: 1.7 h | GI50 (RT-112): 0.151 µM | GI50 [30]: 0.913 µM | Cmax [31]: 11200 ng/mL | Activity [8]: Non-Toxic | Cmax [32]: 24600 ng/mL | half-life [33]: 4.4 h | bioavailability [34]: 61.9% | pIC50 [9]: < 5.00 | Tmax [35]: 1 h | AUC(0-t) [36]: 4810 ng·h/mL | Activity (Hep 3B2 [37]): Active | GI50 (HepG2): 0.335 µM | half-life [38]: 8.6 h | pIC50 (Hep 3B2 [10]): 7.80

C=CC(=O)Nc1ccccc1Nc1cc2c(-c3cnn(C)c3)nc(-c3c(Cl)c(OC)cc(OC)c3Cl)cc2cn1
pIC50 (Huh-7 [1]): 7.30

C=CC(=O)Nc1ccccc1Nc1cc2c(-c3ccccc3)nc(-c3c(Cl)c(OC)cc(OC)c3Cl)cc2cn1
pIC50 (Huh-7 [1]): 7.16

C=CC(=O)Nc1ccccc1Nc1cc2cnc(-c3c(F)c(OC)cc(OC)c3F)cc2cn1
pIC50 (Huh-7 [1]): 7.60

C=CC(=O)Nc1ccc(N2CCN(CC)CC2)c(F)c1Nc1cc2cnc(-c3c(F)c(OC)cc(OC)c3F)cc2cn1
pIC50 (Huh-7 [1]): 6.86
